Test results from patent publication US20250388553A1 (Incyte Corporation, priority 2018, published 2025).
Counter-ions that a name gives are not always drawn. Like-named read-outs stand apart in the source and are kept apart here.

Tests used:
[1] = tested on: Phosphorylated Ribosomal Protein S6 (RPS6) in THP-1 cells; test: THP-1 RPS6 ELISA assay; type: cell-based, Human
Source text: Example A. THP-1 RPS6 ELISA Assay
To measure the Phosphorylated Ribosomal Protein S6 (RPS6) in cell lysates, THP-1 cells (Human Acute Monocytic Leukemia) are purchased from ATCC (Manassas, VA) and maintained in RPMI with 10% FBS (Gibco/Life Technologies, Carlsbad, CA). For the assay, THP-1 cells are serum starved overnight in RPMI, then plated in RPMI (2×10^5 cells/well in […]) into 96-well flat-bottom tissue culture treated plates (Corning, Corning, NY), in the presence or absence of a concentration range of test compounds. Covered plates are incubated for 2 hours at 37° C., 5% CO2 then treated with or without 10 nM MCP-1(MYBioSource, San Diego, CA) for 15 minutes at 37° C., 5% CO2. Plates are centrifuged at 1600 RPM and supernatants are removed. Cells are lysed in Lysis Buffer (Cell Signaling, Danvers, MA) with Protease Inhibitor (Calbiochem/EMD, Germany), PMSF (Sigma, St Louis MO), HALTS (Thermo Fisher, Rockford, IL) for 30 min on wet ice. Cell lysates are frozen at −80° C. before testing. The lysates are tested in the Human/Mouse/Rat Phospho-RPS6 ELISA (R&D Systems, Inc. Minn, MN). The plate is measured using a microplate reader (SpectraMax M5—Molecular Devices, LLC Sunnyvale, CA) set to 450 nm with a wavelength correction of 540. IC50 determination is performed by fitting the curve of inhibitor percent inhibition versus the log of the inhibitor concentration using the GraphPad Prism 5.0 software.
The compounds of the Examples were tested in the assays described in Examples A, B and C and found to have the IC50s are shown in Tables A1, A2, A3 and A4.

[2] = molecular target: PI3Kδ (p1106/p85a) Recombinant Human Protein (Homo sapiens (Human), UniProt O00329); test: PI3Kδ scintillation proximity assay; type: biochemical
Chain of PI3Kδ (p1106/p85a) Recombinant Human Protein (O00329 whole entry): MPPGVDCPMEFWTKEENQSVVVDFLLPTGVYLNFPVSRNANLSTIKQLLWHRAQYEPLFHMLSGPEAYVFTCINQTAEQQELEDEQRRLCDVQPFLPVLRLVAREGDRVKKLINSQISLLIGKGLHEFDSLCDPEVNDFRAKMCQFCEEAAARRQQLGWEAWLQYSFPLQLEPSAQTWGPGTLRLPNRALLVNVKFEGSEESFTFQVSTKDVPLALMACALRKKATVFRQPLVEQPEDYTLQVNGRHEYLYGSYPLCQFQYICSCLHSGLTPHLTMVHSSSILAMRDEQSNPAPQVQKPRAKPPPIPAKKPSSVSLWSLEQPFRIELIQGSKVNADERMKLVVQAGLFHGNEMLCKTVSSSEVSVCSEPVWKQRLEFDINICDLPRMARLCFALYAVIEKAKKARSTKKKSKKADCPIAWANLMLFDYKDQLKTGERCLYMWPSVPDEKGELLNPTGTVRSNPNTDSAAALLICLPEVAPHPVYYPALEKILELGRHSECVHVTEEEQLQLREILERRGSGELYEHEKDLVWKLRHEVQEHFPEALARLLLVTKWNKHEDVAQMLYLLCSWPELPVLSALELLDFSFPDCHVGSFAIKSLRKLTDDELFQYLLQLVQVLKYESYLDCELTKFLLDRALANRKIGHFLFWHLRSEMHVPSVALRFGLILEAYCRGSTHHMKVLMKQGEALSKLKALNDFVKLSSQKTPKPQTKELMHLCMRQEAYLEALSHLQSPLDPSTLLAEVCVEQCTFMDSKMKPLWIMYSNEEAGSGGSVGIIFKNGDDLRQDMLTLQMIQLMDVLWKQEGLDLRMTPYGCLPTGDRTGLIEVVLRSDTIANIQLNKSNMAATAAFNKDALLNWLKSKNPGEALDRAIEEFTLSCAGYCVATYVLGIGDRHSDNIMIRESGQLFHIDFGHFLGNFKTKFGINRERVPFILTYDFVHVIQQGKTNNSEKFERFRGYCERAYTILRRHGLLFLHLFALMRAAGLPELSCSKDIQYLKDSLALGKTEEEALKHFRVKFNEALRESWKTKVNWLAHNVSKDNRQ
Chain of PI3Kδ (p1106/p85a) Recombinant Human Protein (P27986 whole entry partner): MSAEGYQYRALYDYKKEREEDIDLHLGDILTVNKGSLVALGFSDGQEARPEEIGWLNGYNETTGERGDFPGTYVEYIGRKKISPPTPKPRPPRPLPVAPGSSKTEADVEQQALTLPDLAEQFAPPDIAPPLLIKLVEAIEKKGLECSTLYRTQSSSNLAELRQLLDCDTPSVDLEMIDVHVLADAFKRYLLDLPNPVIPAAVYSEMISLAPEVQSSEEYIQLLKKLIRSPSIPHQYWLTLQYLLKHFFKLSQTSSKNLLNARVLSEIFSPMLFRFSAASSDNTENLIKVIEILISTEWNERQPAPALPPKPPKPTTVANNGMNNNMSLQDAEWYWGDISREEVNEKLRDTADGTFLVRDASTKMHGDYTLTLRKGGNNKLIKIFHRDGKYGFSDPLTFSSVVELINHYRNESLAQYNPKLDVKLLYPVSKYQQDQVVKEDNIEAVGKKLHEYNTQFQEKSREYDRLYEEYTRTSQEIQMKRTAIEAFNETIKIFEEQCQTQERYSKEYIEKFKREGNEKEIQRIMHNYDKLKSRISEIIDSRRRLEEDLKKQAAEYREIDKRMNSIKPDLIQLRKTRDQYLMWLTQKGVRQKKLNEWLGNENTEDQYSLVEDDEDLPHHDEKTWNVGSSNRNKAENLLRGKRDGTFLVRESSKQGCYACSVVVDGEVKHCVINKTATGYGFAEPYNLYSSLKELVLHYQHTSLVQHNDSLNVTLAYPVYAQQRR

[3] = molecular target: PI3Kγ (p110γ) Recombinant Human Protein (Homo sapiens (Human), UniProt P48736); test: PI3K-γ scintillation proximity assay; type: biochemical
Chain of PI3Kγ (p110γ) Recombinant Human Protein (P48736 whole entry): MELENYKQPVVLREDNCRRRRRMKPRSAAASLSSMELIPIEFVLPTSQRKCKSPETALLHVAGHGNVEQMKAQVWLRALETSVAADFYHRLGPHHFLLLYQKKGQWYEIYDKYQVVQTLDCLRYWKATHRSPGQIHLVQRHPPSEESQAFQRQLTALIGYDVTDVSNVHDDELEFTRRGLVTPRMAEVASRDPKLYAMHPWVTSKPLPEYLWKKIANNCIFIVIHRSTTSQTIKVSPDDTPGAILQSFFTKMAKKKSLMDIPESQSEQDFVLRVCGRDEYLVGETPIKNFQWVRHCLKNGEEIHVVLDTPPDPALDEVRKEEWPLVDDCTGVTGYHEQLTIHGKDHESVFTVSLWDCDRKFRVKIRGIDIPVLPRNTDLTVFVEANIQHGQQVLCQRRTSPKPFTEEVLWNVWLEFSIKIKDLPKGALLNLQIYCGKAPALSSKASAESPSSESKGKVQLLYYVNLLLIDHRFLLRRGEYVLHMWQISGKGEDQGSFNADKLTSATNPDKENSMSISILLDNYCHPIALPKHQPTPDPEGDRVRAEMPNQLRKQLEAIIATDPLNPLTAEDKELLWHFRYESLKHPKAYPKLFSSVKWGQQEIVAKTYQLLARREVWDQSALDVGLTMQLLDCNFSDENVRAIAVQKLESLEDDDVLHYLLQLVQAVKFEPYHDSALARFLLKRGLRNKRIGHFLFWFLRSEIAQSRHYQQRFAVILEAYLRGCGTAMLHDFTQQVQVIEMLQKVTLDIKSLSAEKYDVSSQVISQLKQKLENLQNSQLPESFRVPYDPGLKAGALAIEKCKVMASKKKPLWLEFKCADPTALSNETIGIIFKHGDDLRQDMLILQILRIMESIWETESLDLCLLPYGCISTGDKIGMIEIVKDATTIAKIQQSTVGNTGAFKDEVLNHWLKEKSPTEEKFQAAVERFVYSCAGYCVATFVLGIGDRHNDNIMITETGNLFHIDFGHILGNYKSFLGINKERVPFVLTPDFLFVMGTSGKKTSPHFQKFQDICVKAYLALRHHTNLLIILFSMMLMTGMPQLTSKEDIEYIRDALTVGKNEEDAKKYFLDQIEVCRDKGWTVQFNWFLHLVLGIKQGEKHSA

[4] = Homo sapiens, Table A3, THP-1 cells, 10 nM MCP-1, phospho-RPS6 ELISA, read-out: PI3Kγ_THP1_RPS6_ELISA IC50
[5] = Table A3, scintillation proximity assay, recombinant human PI3Kδ
[6] = Table A3, scintillation proximity assay, recombinant human p110γ
[7] = Homo sapiens, Table A4, THP-1 cells, 10 nM MCP-1, phospho-RPS6 ELISA, read-out: PI3Kγ_THP1_RPS6_ELISA IC50
[8] = Table A4, scintillation proximity assay, recombinant human PI3Kδ
[9] = Table A4, scintillation proximity assay, recombinant human p110γ

Q: Which results are given for `CNC(=O)c1ccc(-c2nc(-c3cc(C(O)(C(N)=O)C(F)(F)F)ccc3C)cnc2N)cn1` (stereo not drawn) [Example 80, 5-(3-amino-6-(5-(3-amino-1,1,1-trifluoro-2-hydroxy-3-oxopropan-2-yl)-2-methylphenyl)pyrazin-2-yl)-N-methylpicolinamide bistrifluoroacetate]?
A: IC50 [1, 4]: 500 to 1000 nM; IC50 [2, 5]: 100 to 500 nM; IC50 [3, 6]: < 100 nM

Q: For `Cc1ccc(C(O)(C(N)=O)C(F)(F)F)cc1-c1cnc(N)c(-c2cncnc2)n1` (stereo not drawn) [Example 81, 2-(3-(5-amino-6-(pyrimidin-5-yl)pyrazin-2-yl)-4-methylphenyl)-3,3,3-trifluoro-2-hydroxypropanamide trifluoroacetate], which IC50 [1, 4] is on record?
A: Its IC50 is 100 to 500 nM.

Q: And the IC50 [2, 5]?
A: The IC50 was 100 to 500 nM.

Q: What about the IC50 [3, 6] of the same compound?
A: The IC50 was < 100 nM.

Q: What does the source list for `Cc1ccc(-c2nc(-c3cc(C(O)(C(N)=O)C(F)(F)F)ccc3C)cnc2N)cn1` (stereo not drawn) [Example 82, 2-(3-(5-amino-6-(6-methylpyridin-3-yl)pyrazin-2-yl)-4-methylphenyl)-3,3,3-trifluoro-2-hydroxypropanamide bistrifluoroacetate]?
A: IC50 [1, 4]: 100 to 500 nM; IC50 [2, 5]: < 100 nM; IC50 [3, 6]: < 100 nM

Q: For `Cc1ccc(C(O)(C(N)=O)C(F)(F)F)cc1-c1cnc(N)c(-c2ccc(C(F)(F)F)nc2)n1` (stereo not drawn) [Example 83, 2-(3-(5-amino-6-(6-(trifluoromethyl)pyridin-3-yl)pyrazin-2-yl)-4-methylphenyl)-3,3,3-trifluoro-2-hydroxypropanamide bistrifluoroacetate], which IC50 [1, 4] is on record?
A: Its IC50 is 100 to 500 nM.

Q: And the IC50 [2, 5]?
A: Its IC50 is < 100 nM.

Q: And the IC50 [3, 6]?
A: The IC50 was < 100 nM.

Q: How did the IC50 [1, 4] turn out when `Cc1ccc(C(O)(C(N)=O)C(F)(F)F)cc1-c1cnc(N)c(-c2cnc(C3CC3)s2)n1` (stereo not drawn) [Example 84, 2-(3-(5-amino-6-(2-cyclopropylthiazol-5-yl)pyrazin-2-yl)-4-methylphenyl)-3,3,3-trifluoro-2-hydroxypropanamide trifluoroacetate] was run?
A: The IC50 was 100 to 500 nM.

Q: What about the IC50 [2, 5] of the same compound?
A: Its IC50 is < 100 nM.

Q: What about the IC50 [3, 6] of the same compound?
A: Its IC50 is < 100 nM.

Q: For `Cc1ccc(C(O)(C(N)=O)C(F)(F)F)cc1-c1cnc(N)c(-c2ccnc(CO)c2)n1` (stereo not drawn) [Example 85, 2-(3-(5-amino-6-(2-(hydroxymethyl)pyridin-4-yl)pyrazin-2-yl)-4-methylphenyl)-3,3,3-trifluoro-2-hydroxypropanamide bistrifluoroacetate], which IC50 [1, 4] is on record?
A: Its IC50 is 100 to 500 nM.

Q: What about the IC50 [2, 5] of the same compound?
A: The IC50 was < 100 nM.

Q: What about the IC50 [3, 6] of the same compound?
A: Its IC50 is < 100 nM.

Q: How did the IC50 [1, 4] turn out when `Cc1ccc(C(O)(C(N)=O)C(F)(F)F)cc1-c1cnc(N)c(-c2cnn(CC3CC3)c2)n1` (stereo not drawn) [Example 86, 2-(3-(5-amino-6-(1-(cyclopropylmethyl)-1H-pyrazol-4-yl)pyrazin-2-yl)-4-methylphenyl)-3,3,3-trifluoro-2-hydroxypropanamide trifluoroacetate] was run?
A: The IC50 was < 100 nM.

Q: What about the IC50 [2, 5] of the same compound?
A: The IC50 was < 100 nM.

Q: What about the IC50 [3, 6] of the same compound?
A: Its IC50 is < 100 nM.

Q: How did the IC50 [1, 4] turn out when `Cc1ccc(C(O)(C(N)=O)C(F)(F)F)cc1-c1cnc(N)c(-c2ccc(CC#N)cc2)n1` (stereo not drawn) [Example 87, 2-(3-(5-amino-6-(4-(cyanomethyl)phenyl)pyrazin-2-yl)-4-methylphenyl)-3,3,3-trifluoro-2-hydroxypropanamide trifluoroacetate] was run?
A: Its IC50 is 100 to 500 nM.

Q: And the IC50 [2, 5]?
A: The IC50 was < 100 nM.

Q: What about the IC50 [3, 6] of the same compound?
A: The IC50 was < 100 nM.

Q: For `Cc1ccc(C(O)(C(N)=O)C(F)(F)F)cc1-c1cnc(N)c(-c2ccc(CO)cc2)n1` (stereo not drawn) [Example 88, 2-(3-(5-amino-6-(4-(hydroxymethyl)phenyl)pyrazin-2-yl)-4-methylphenyl)-3,3,3-trifluoro-2-hydroxypropanamide trifluoroacetate], which IC50 [1, 4] is on record?
A: Its IC50 is 100 to 500 nM.

Q: What about the IC50 [2, 5] of the same compound?
A: Its IC50 is < 100 nM.

Q: And the IC50 [3, 6]?
A: The IC50 was < 100 nM.

Q: How did the IC50 [1, 4] turn out when `CNC(=O)c1ccc(-c2nc(-c3cc(C(O)(C(N)=O)C(F)(F)F)ccc3C)cnc2N)cc1` (stereo not drawn) [Example 89, 4-(3-amino-6-(5-(3-amino-1,1,1-trifluoro-2-hydroxy-3-oxopropan-2-yl)-2-methylphenyl)pyrazin-2-yl)-N-methylbenzamide trifluoroacetate] was run?
A: The IC50 was 100 to 500 nM.

Q: And the IC50 [2, 5]?
A: The IC50 was < 100 nM.

Q: What about the IC50 [3, 6] of the same compound?
A: The IC50 was < 100 nM.

Q: With `Cc1ccc(C(O)(C(N)=O)C(F)(F)F)cc1-c1cnc(N)c(-c2cccc(C(C)C)c2)n1` (stereo not drawn) [Example 90, 2-(3-(5-amino-6-(3-isopropylplienyl)pyrazin-2-yl)-4-methylphenyl)-3?3,3-trifluoro-2-hydroxypropanamide trifluoroacetate] as the compound, how does the IC50 ([1]; Table A3, THP-1 cells, 10 nM MCP-1, phospho-RPS6 ELISA, read-out: PI3Kγ_THP1_RPS6_ELISA IC50) read?
A: The IC50 was 100 to 500 nM.

Q: And the IC50 [2, 5]?
A: The IC50 was 100 to 500 nM.

Q: And the IC50 [3, 6]?
A: The IC50 was < 100 nM.

Q: What does the source list for `Cc1ccc(C(O)(C(N)=O)C(F)(F)F)cc1-c1cnc(N)c(-c2ccc(C(C)(C)O)cc2)n1` (stereo not drawn) [Example 91, 2-(3-(5-amino-6-(4-(2-hydroxypropan-2-yl)phenyl)pyrazin-2-yl)-4-methylphenyl)-3,3,3-trifluoro-2-hydroxypropanamide trifluoroacetate]?
A: IC50 [1, 4]: < 100 nM; IC50 [2, 5]: < 100 nM; IC50 [3, 6]: < 100 nM

Q: `Cc1ccc(C(O)(C(N)=O)C(F)(F)F)cc1-c1cnc(N)c(-c2ccc(C3CC3)cc2)n1` (stereo not drawn) [Example 92, 2-(3-(5-amino-6-(4-cyclopropylphenyl)pyrazin-2-yl)-4-methylphenyl)-3,3,3-trifluoro-2-hydroxypropanamide trifluoroacetate] was tested. Which IC50 [1, 4] did it give?
A: Its IC50 is 100 to 500 nM.

Q: What about the IC50 [2, 5] of the same compound?
A: The IC50 was 100 to 500 nM.

Q: And the IC50 [3, 6]?
A: Its IC50 is < 100 nM.

Q: For `Cc1ccc(C(O)(C(N)=O)C(F)(F)F)cc1-c1cnc(N)c(-c2ccc(B(O)O)cc2)n1` (stereo not drawn) [Example 97, (4-(3-Amino-6-(5-(3-amino-1,1,1-trifluoro-2-hydroxy-3-oxopropan-2-yl)-2-methylphenyl)pyrazin-2-yl)phenyl)boronic Acid], which IC50 [1, 4] is on record?
A: The IC50 was 100 to 500 nM.

Q: And the IC50 [2, 5]?
A: The IC50 was < 100 nM.

Q: What about the IC50 [3, 6] of the same compound?
A: Its IC50 is < 100 nM.

Q: How did the IC50 [1, 4] turn out when `Cc1ccc(C(O)(CNC=O)C(F)(F)F)cc1-c1cnc(N)c(-c2cn[nH]c2)n1` (stereo not drawn) [Example 103, N-(2-(3-(5-amino-6-(1H-pyrazol-4-yl)pyrazin-2-yl)-4-methylphenyl)-3,3,3-trifluoro-2-hydroxypropyl)formamide trifluoroacetate] was run?
A: Its IC50 is 100 to 500 nM.

Q: And the IC50 [2, 5]?
A: The IC50 was 100 to 500 nM.

Q: What about the IC50 [3, 6] of the same compound?
A: The IC50 was < 100 nM.

Q: How did the IC50 [1, 7] turn out when `Cc1ccc(C(O)(C(N)=O)C(F)(F)F)cc1-c1cnc(N)c(N2CCN(C3CC3)C(=O)C2)n1` (stereo not drawn) [Example 112, 2-(3-(5-amino-6-(4-cyclopropyl-3-oxopiperazin-1-yl)pyrazin-2-yl)-4-methylphenyl)-3,3,3-trifluoro-2-hydroxypropanamide Trifluoroacetate] was run?
A: Its IC50 is 100 to 500 nM.

Q: What about the IC50 [2, 8] of the same compound?
A: The IC50 was 100 to 500 nM.

Q: What about the IC50 [3, 9] of the same compound?
A: The IC50 was < 100 nM.

Q: What does the source list for `Cc1ccc(C(O)(C(N)=O)C(F)(F)F)cc1-c1cnc(N)c(N2CCN(C(C)(C)C)C(=O)C2)n1` (stereo not drawn) [Example 113, 2-(3-(5-amino-6-(4-tert-butyl-3-oxopiperazin-1-yl)pyrazin-2-yl)-4-methylphenyl)-3,3,3-trifluoro-2-hydroxypropanamide trifluoroacetate]?
A: IC50 [1, 7]: 100 to 500 nM; IC50 [2, 8]: 100 to 500 nM; IC50 [3, 9]: < 100 nM

Q: Which IC50 [1, 7] does the source give for `Cc1ccc(C(O)(C(N)=O)C(F)(F)F)cc1-c1cnc(N)c(N2CCN(c3ccccc3C)CC2)n1` (stereo not drawn) [Example 118, 2-(3-(5-amino-6-(4-o-tolylpiperazin-1-yl)pyrazin-2-yl)-4-methylphenyl)-3,3,3-trifluoro-2-hydroxypropanamide trifluoroacetate] here?
A: Its IC50 is 500 to 1000 nM.

Q: And the IC50 [2, 8]?
A: Its IC50 is 100 to 500 nM.

Q: What about the IC50 [3, 9] of the same compound?
A: The IC50 was < 100 nM.

Q: `Cc1ccc(C(O)(C(N)=O)C(F)(F)F)cc1-c1cnc(N)c(N2CCN(c3ccc(C#N)cc3)CC2)n1` (stereo not drawn) [Example 123, 2-(3-(5-amino-6-(4-(4-cyanophenyl)piperazin-1-yl)pyrazin-2-yl)-4-methylphenyl)-3,3,3-trifluoro-2-hydroxypropanamide trifluoroacetate] was tested. Which IC50 [1, 7] did it give?
A: The IC50 was 100 to 500 nM.

Q: And the IC50 [2, 8]?
A: The IC50 was < 100 nM.

Q: And the IC50 [3, 9]?
A: Its IC50 is < 100 nM.

Q: Which results are given for `Cc1ccc(C(O)(C(N)=O)C(F)(F)F)cc1-c1cnc(N)c(N2CC(=O)N(c3ccc(O)cc3)[C@@H](CO)C2)n1` (stereo partly drawn) [Example 124, 2-(3-(5-amino-6-((R)-3-(hydroxymethyl)-4-(4-hydroxyphenyl)-5-oxopiperazin-1-yl)pyrazin-2-yl)-4-methylphenyl)-3,3,3-trifluoro-2-hydroxypropanamide trifluoroacetate]?
A: IC50 [1, 7]: 500 to 1000 nM; IC50 [2, 8]: 100 to 500 nM; IC50 [3]: < 100 nM

Q: Which results are given for `Cc1ccc(C(O)(C(N)=O)C(F)(F)F)cc1-c1cnc(N)c(N2CCN(CCC#N)CC2)n1` (stereo not drawn) [Example 125, 2-(3-(5-amino-6-(4-(2-cyanoethyl)piperazin-1-yl)pyrazin-2-yl)-4-methylphenyl)-3,3,3-trifluoro-2-hydroxypropanamide trifluoroacetate]?
A: IC50 ([1]; Homo sapiens, THP-1, read-out: PI3Kγ_THP1_RPS6_ELISA IC50 (nM)): 100 to 500 nM; IC50 [2]: < 100 nM; IC50 [3]: < 100 nM
